Measured values published in patent US20250229073A1, “TRANSIENT DISRUPTION OF THE NEUROVASCULAR BARRIER OF A HUMAN AND USES THEREOF FOR TREATING AMYOTROPHIC LATERAL SCLEROSIS” (SORBONNE UNIVERSITE, priority 2022, published 2025).

What was measured:
[1] = Blood spinal cord barrier opening assessed by Evan's Blue Dye spinal cord uptake quantification; format: in vivo; settings: healthy WT mice
Protocol: (§1) A 1-cm, 1 MHz planar ultrasound transducer was coupled to the skin with ultrasound coupling gel and positioned to target the lumbar spinal cord. The peak acoustic pressure was 0.5 MPa for tolerance tests in WT mice and 0.35 MPa was sufficient for blood spinal cord disruption assessment and for ALS mouse procedures (FIG. 1). At the beginning of the sonication, 0.2 mL of microbubbles (SonoVue, Bracco®) were injected intravenously. Twenty-four mice were used to test the sonication protocol
Blood spinal cord opening was assessed on 27 WT mice with Evan's Blue Dye (EBD) spinal cord uptake quantification.
(§2) The spinal cord was removed and frozen in liquid nitrogen. • For immunohistological analysis and motor neuron count (fixed tissues), the mice were perfused transcardially with 20 mL PBS then 50 mL of 4% paraformaldehyde in phosphate buffer. The spinal cord was extracted, and placed for 4 hours in 4% paraformaldehyde for post-fixation and then cryopreserved in a 30% sucrose solution in PBS before freezing. Thirty-micron thick transverse sections were cut on a cryostat at −18° C. Floating segments of spinal cord were stored in phosphate buffered saline solution at 4° C. Motor neuron counts were determined on serial sections across the lumbar spinal cords (15-20 sections per animal) after Nissl staining. • For immunostaining, sections were incubated overnight at room temperature with the following antibodies: rabbit anti-Iba1 (1:500 Wako Chemicals), anti-GFAP (1:500 Dako anti GFAP), rat anti-CD4 (1:100, AbD Serotec), rat anti CD3 (1:100, AbD Serotec), rat anti CD8 (1:100, AbD Serotec, rabbit polyclonal to human SOD1 (1:10000, Abcam). Species specific Alexa Fluor 488, 594, 647 (1:1000 Life Technologies) were used as secondary antibodies
GraphPad (GraphPad Software, San Diego, CA) was used for all statistical analysis. Statistical significance was set at p≤0.05. […] A Log-rank P value was calculated with Mantel-Cox test to compare the survival curves and corrected with the Bonferroni coefficient.

[2] = system: patients suffering from ALS; settings: clinical, literature; cited from earlier work
SOD1^G93A ALS mice [3] = experiment: Clinical and survival evaluation of treated ALS mice; format: in vivo
Protocol: Eighty Mutant SOD1^G93A female mice modeling ALS [B6.Cg-Tg (SOD1^G93A) 1Gur/J] were purchased from Jackson Laboratories (stock #004435) and 120 wild type control mice (WT), with a C57B16/J genetic background. The animal protocol complied with the European laws for the protection of experimental animals and was approved by the local ethics committee. Mice were maintained on a 12:12 h dark: light cycle with food and water available ad libitum. Moisturized food pellets were supplied when mice became weak. ALS mice were hemizygous for a 12 kb genomic fragment encoding the human wild-type or mutated SOD1 gene under its endogenous promoter. Mice carrying the human SOD1 transgene were identified by PCR screening of tail DNA using mouse SOD1 forward primer (5′-[…]-3′), human SOD1 forward primer (5′-[…]-3′) and mouse and human SOD1 reverse primer (5′-[…]-3′) resulting in a ˜800 bp mouse and a ˜600 bp human SOD1 PCR product.
To represent as close as possible the clinical disease progression in humans, treatment started at the beginning of the disease and not at a presymptomatic stage. SOD1^G93A mice are a particularly severe model in terms of symptoms. The mice quickly become too weak to tolerate general anesthesia, which led us to stop treatments at 135 days of age, or 1 month of treatment (5 sessions). This corresponds approximately to the end of the early phase of the disease.
as §1
Controls and US mice received a subcutaneous injection of 0.9% saline. […]
Muscle strength of mice was assessed by three different motor tests: grip testing, inverted screen testing and wire suspension testing. […]

SOD1^G93A ALS mice [4] = experiment: Histological analysis of spinal cord of the ALS treated mice (immunostaining, motor neuron counts); format: in vivo
Source text: The onset of disease was defined as the time point at which the mice were at peak weight before they started to lose weight due to progressive motor neuron denervation and muscle wasting, as shown in FIG. 1. The symptomatic stage was defined as the age at which the mice had lost 10% of their maximal weight and is accompanied by gait alterations and failure of hindlimb splaying reflex. This disease stage was followed by progressive paralysis. […] In each group some randomly assigned mice were sacrificed at the symptomatic stage (defined as 10% of weight loss) or at disease end stage for immunohistological analysis.
as §2
GraphPad (GraphPad Software, San Diego, CA) was used for all statistical analysis. Statistical significance was set at p≤0.05. […] Duration of early and late phases between the groups were compared by ANOVA after a normality test and followed by post-hoc Tukey-Kramer Multiple comparison test or Dunnett's multiple comparison test. Motor neuron count, immune activation and SOD1 expression were compared in different group using Kruskall Wallis test. Data are represented as Mean+SEM. Kruskal Wallis non parametric test was used to compare the total number of lymphocytes (CD4 and CD8). Survival analysis (onset disease, end-stage) was performed with Kaplan-Meier statistics. A Log-rank P value was calculated with Mantel-Cox test to compare the survival curves and corrected with the Bonferroni coefficient.

[5] = IGF1 spinal cord uptake quantification (Quantikine ELISA human IGF-1); format: in vivo; settings: healthy WT mice
Protocol: A 1-cm, 1 MHz planar ultrasound transducer was coupled to the skin with ultrasound coupling gel and positioned to target the lumbar spinal cord. […] At the beginning of the sonication, 0.2 mL of microbubbles (SonoVue, Bracco®) were injected intravenously. Twenty-four mice were used to test the sonication protocol
Fourteen sonicated lumbar spinal cord were compared to 15 non-sonicated lumbar spinal cord
GraphPad (GraphPad Software, San Diego, CA) was used for all statistical analysis. Statistical significance was set at p≤0.05. […] Data are represented as Mean+SEM.

**Q.** With `Cc1cc(-c2ccc(/N=N/c3ccc4c(S(=O)(=O)[O-])cc(S(=O)(=O)[O-])c(N)c4c3O)c(C)c2)ccc1/N=N/c1ccc2c(S(=O)(=O)[O-])cc(S(=O)(=O)[O-])c(N)c2c1O.[Na+].[Na+].[Na+].[Na+]` [EBD, Evan's Blue Dye] as the compound, how does the “EBD concentration, sonicated compared to non-sonicated segments” value [1] read?
**A.** Its value is 3.4 times.

**Q.** And the “EBD concentration in spinal cord, non-sonicated segments” value ([1]; non-sonicated segments)?
**A.** The value was 41 µg/g.

**Q.** And the “EBD concentration in spinal cord, sonicated segments” value ([1]; sonicated segments of spinal cord)?
**A.** The value was 142 µg/g.

**Q.** Which “side effects in ALS patients” value [2] does the source give for `Nc1nc2ccc(OC(F)(F)F)cc2s1` [riluzole, 2-amino-6-trifluoromethoxybenzothiazole] here?
**A.** The value was “asthenia, spasticity and an increase in the transaminase levels”.

**Q.** For “IGF1: rhIGF1 (Mecasermine, IPSEN Pharma), Insulin-like Growth Factor 1, subcutaneous injection of 500 μg/kg”, which “ALS mouse survival (median age)” value (SOD1^G93A ALS mice [3]; SOD1^G93A mice, 5 weekly sessions from P106, control 166.5 days) is on record?
**A.** The value was 166 days.

**Q.** And the “early disease phase duration” value (SOD1^G93A ALS mice [3]; peak weight to 10% weight loss, control 37.4±3.4, b130 gives the gain in days)?
**A.** The value was 36.8±2.8.

**Q.** What about the “effect of IGF1 administration on survival or functional tests” value (SOD1^G93A ALS mice [3]; whether or not associated with ultrasound, 0.5 mg/kg once a week, five injections) of the same compound?
**A.** The value was “no additional effect”.

**Q.** What about the “immunofluorescent area occupied by SOD1, end stage mice” value (SOD1^G93A ALS mice [4]; disease end stage) of the same compound?
**A.** Its value is “lowest percentage of SOD1”.

**Q.** And the “number of lymphocytes (CD3+) per section” value (SOD1^G93A ALS mice [4]; end stage, control 11±3.6)?
**A.** The value was 28.5±3.8.

**Q.** And the “astrocyte reactivity, immunoreactive area for GFAP” value (SOD1^G93A ALS mice [4]; stage not given, control 12±2.6, unit from FIG. 4 legend)?
**A.** The value was 5.9±2.5%.

**Q.** What about the “immunofluorescent area occupied by SOD1, symptomatic mice” value (SOD1^G93A ALS mice [4]; symptomatic stage (10% weight loss)) of the same compound?
**A.** Its value is “lowest percentage of SOD1”.

**Q.** And the “microglial reactivity, Iba1 immunoreactivity” value (SOD1^G93A ALS mice [4]; symptomatic stage, control 10.3±0.6%)?
**A.** The value was 5±2.1%.

**Q.** And the “number of lymphocytes (CD3+) per section” value (SOD1^G93A ALS mice [4]; symptomatic stage, control 13±3.5)?
**A.** Its value is 20±5.3.

**Q.** And the “IGF1 concentration, sonicated compared to non-sonicated” value [5]?
**A.** Its value is 1100 times.
